Numbers after ± are expanded uncertainties.
Experiments:
[1] = Liquid; for Critical pressure: Direct measurement; for Critical temperature: Visual observation in an unstirred cell
[2] = xn = mol fraction of the nth substance listed; settings: Liquid

| SMILES | Critical density [1] [kg/m3] | Critical pressure [1] [kPa] | Critical temperature [1] [K] | Critical density ([2]; x2 = 0) [kg/m3] | Critical density ([2]; x1 = 1) [kg/m3] | other results |
| --- | --- | --- | --- | --- | --- | --- |
| FC(C(F)(F)F)C(F)(F)F [1,1,1,2,3,3,3-heptafluoropropane] | 598 ± 14 | 2930 ± 12 | 375 ± 0.16 |  |  |  |
| FC(C(F)(F)F)C(F)(F)F [1,1,1,2,3,3,3-heptafluoropropane] + COC(F)(F)F |  |  |  | 598 ± 14 |  |  |
| FC(F)C(F)C(F)(F)F (stereo not drawn) [1,1,1,2,3,3-hexafluoropropane] | 562 ± 13 | 3416 ± 12 | 412.41 ± 0.16 |  |  |  |
| FC(F)C(F)C(F)(F)F (stereo not drawn) [1,1,1,2,3,3-hexafluoropropane] + COC(F)(F)F |  |  |  | 562 ± 13 |  | Critical density ([2]; x2 = 0.2452): 545 ± 13 kg/m3; Critical density ([2]; x2 = 0.3348): 541 ± 13 kg/m3; Critical density ([2]; x2 = 0.5434): 518 ± 12 kg/m3; Critical density ([2]; x2 = 0.7338): 497 ± 12 kg/m3; Critical density ([2]; x2 = 0.8497): 476 ± 11 kg/m3 |
| FCC(F)(F)F [1,1,1,2-tetrafluoroethane] | 508 ± 12 | 4053 ± 12 | 374.13 ± 0.16 |  |  |  |
| FCC(F)(F)F [1,1,1,2-tetrafluoroethane] + COC(F)(F)F |  |  |  | 508 ± 12 |  |  |
| FC(F)C(F)(F)F [pentafluoroethane] | 560 ± 13 | 3617 ± 12 | 339.2 ± 0.16 |  |  |  |
| FC(F)C(F)(F)F [pentafluoroethane] + COC(F)(F)F |  |  |  | 560 ± 13 |  |  |
| COC(F)(F)F [trifluoromethoxymethane] | 459 ± 11 | 3640 ± 12 | 377.92 ± 0.16 |  |  |  |
| COC(F)(F)F [trifluoromethoxymethane] + FC(C(F)(F)F)C(F)(F)F |  |  |  |  | 459 ± 11 | Critical density ([2]; x1 = 0.1647): 574 ± 13 kg/m3; Critical density ([2]; x1 = 0.3999): 543 ± 13 kg/m3; Critical density ([2]; x1 = 0.4999): 526 ± 12 kg/m3; Critical density ([2]; x1 = 0.6664): 508 ± 12 kg/m3; Critical density ([2]; x1 = 0.8165): 486 ± 11 kg/m3 |
| COC(F)(F)F [trifluoromethoxymethane] + FC(F)C(F)(F)F |  |  |  |  | 459 ± 11 | Critical density ([2]; x1 = 0.1859): 555 ± 13 kg/m3; Critical density ([2]; x1 = 0.3073): 523 ± 12 kg/m3; Critical density ([2]; x1 = 0.5185): 515 ± 12 kg/m3; Critical density ([2]; x1 = 0.7094): 491 ± 11 kg/m3; Critical density ([2]; x1 = 0.8305): 479 ± 11 kg/m3 |
| COC(F)(F)F [trifluoromethoxymethane] + FC(F)C(F)C(F)(F)F |  |  |  |  | 459 ± 11 |  |
| COC(F)(F)F [trifluoromethoxymethane] + FCC(F)(F)F |  |  |  |  | 459 ± 11 | Critical density ([2]; x1 = 0.1649): 508 ± 12 kg/m3; Critical density ([2]; x1 = 0.2914): 492 ± 11 kg/m3; Critical density ([2]; x1 = 0.4897): 486 ± 11 kg/m3; Critical density ([2]; x1 = 0.6543): 480 ± 11 kg/m3; Critical density ([2]; x1 = 0.8151): 468 ± 11 kg/m3 |
